The source of these data is paper PMC5025650, “Comparison of research methods for functional characterization of insect olfactory receptors” (Scientific Reports, 2016).

Test [1] concerns the target T1, HassOR13/HassOrco (Helicoverpa assulta, UniProt A0A0B4ZYC6).
T1 construct: gene OR13; called heterodimer; with Odorant receptor coreceptor
T1 sequence (A0A0B4ZYC6 1-425): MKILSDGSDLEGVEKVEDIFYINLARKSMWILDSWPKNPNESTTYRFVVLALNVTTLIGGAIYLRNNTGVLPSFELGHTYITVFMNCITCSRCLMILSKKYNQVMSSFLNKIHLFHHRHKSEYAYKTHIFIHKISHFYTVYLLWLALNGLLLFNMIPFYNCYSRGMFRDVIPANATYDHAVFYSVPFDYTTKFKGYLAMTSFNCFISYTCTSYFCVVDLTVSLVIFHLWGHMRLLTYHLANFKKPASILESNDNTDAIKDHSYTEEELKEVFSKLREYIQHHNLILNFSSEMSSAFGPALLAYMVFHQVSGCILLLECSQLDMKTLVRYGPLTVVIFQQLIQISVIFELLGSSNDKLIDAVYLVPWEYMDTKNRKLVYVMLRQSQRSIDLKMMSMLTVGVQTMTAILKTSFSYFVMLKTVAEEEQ
T1 sequence (A7UGE1 1-473 partner): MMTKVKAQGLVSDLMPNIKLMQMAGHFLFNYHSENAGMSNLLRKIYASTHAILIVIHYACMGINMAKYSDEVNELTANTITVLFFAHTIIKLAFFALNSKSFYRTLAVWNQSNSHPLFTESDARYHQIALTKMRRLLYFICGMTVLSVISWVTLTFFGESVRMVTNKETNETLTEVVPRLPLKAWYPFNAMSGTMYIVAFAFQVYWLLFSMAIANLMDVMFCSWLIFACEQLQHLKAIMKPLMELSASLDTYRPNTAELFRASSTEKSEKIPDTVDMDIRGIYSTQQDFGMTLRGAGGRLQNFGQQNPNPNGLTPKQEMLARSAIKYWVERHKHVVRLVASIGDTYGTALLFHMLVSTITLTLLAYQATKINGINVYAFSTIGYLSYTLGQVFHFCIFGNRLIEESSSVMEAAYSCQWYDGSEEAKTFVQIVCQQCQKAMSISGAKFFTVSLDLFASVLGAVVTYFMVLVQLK
In words: two-electrode voltage clamp, Xenopus oocytes. It is filed as cell-based. The note with it: weak agonist; with HassOrco; holding potential −80 mV; pH 7.6.

The target in test [2] is T1, HassOR13/HassOrco. In words: two-electrode voltage clamp, Xenopus oocytes. It is filed as cell-based. (In general: Two-electrode voltage clamp holds a large cell at a set potential and records current.)

As to `CCCC/C=C\CCCCCCCC=O` [Z9-14:Ald, (Z)-9-tetradecenal], the “current at 10^-4 M” value on HassOR13/HassOrco [1] is listed as 31 ± 8 nA.

Turning to `CCCCCC/C=C\CCCCCCCC=O` [Z9-16:Ald, (Z)-9-hexadecenal], at HassOR13/HassOrco [1], the “current at 10^-4 M” value turned out to be 72 ± 13 nA.

What is called EC50 is the concentration giving half of the maximal effect. A higher EC50 goes with lower potency in that assay. At HassOR13/HassOrco [2], `CCCC/C=C\CCCCCCCCCC=O` [Z11-16:Ald, (Z)-11-hexadecenal] yielded an EC50 of 68.4 µM.
